Laboratory results as given in patent US12606538B2, “Benzo[b]selenophene sting regulator, preparation method and use thereof” (CHINA PHARMACEUTICAL UNIVERSITY, priority 2021, dated 2026).

What was measured:
Type in all cases: cell-based
RAW-Lucia cells = assay: Luciferase assay based on RAW-Lucia cells; conditions: 24 h at 37° C.
Protocol: (§1) THP1-dual™ (Invivogen: thpd-nfis) cells or RAW-Lucia™ (Invivogen: rawl-isg) cells were diluted using a culture medium, and 180 μL of cell suspension was sucked and inoculated in a 96-well plate, such that each well contain 1×10^5 cells. 20 μL of a compound to be tested was added into the 96-well plate (the final concentration of said compound was […], and the final volume of each well was […]) and cultured at 37° C. for 24 h. 10 μL of supernatant was sucked into a new 96-well white plate, and 50 μL of a QUANT-Luc reagent was added. After full and even mixing, a microplate reader was used immediately for determination. There were three repeated wells set in the assay. The test result was represented as agitation fold and calculated by (test well−blank well)/(negative well−blank well). The test result was in the following tablet, with 2′,3′-cGAMP as a positive control, where *** represented an agitation fold of 20 or more, ** represented an agitation fold of 10 to 20, and * represented an agitation fold of 1 to 10.

THP1-dual cells = assay: Luciferase assay based on THP1-dual cells; conditions: final concentration of compound 10 μL (so in the source), 24 h at 37° C.
Protocol: as §1

THP1 cells = assay: Interferon β induction assay based on THP1 cells (ELISA); conditions: Homo sapiens, THP-1, compound 20 μM, 3.5 h, read-out: Secretion of IFNβ in THP1 cells, effect relative to 2′,3′-cGAMP at 20 μM (%)
Protocol: Secreted cytokine IFNβ was determined by ELISA. THP1 cells were inoculated in a 96-well plate (there was no serum contained in an RPMI 1640 medium), such that the number of cells in each well ranged from 5×10^5 to 7×10^5. A DMSO stock solution of 10 mM was prepared from a compound to be tested, diluted with a culture medium to a target concentration to be added into the 96-well plate containing cells (the final concentration of said compound was 20 μM, and the final volume of each well was 200 μL), and cultured at 37° C. in 5% CO2 for 3.5 h. The cells were collected at 4° C. and centrifuged at 1,000 rpm for 20 mins, and supernate was collected for ELISA determination. There were three repeated wells set in the assay. The result was shown in the following tablet, with 2′,3′-cGAMP as a positive control, where the test result was represented as a percentage of activity relative to 2′,3′-cGAMP at a concentration of 20 μM.

Row | Structure (SMILES) | Agitation activity in luciferase assay, RAW-Lucia (agitation fold) (RAW-Lucia cells) | Agitation activity in luciferase assay, THP1-dual (agitation fold) (THP1-dual cells) | Emax at 20 µM (THP1 cells) [%]
1 | COc1cc2cc(C(=O)C[C@@H](C)C(=O)O)[se]c2cc1OC [I-3, R-4-(5,6-dimethoxybenzo[b]selenophene-2-yl)-2-methyl-4-oxo-butanoic acid] | *** (*** represented an agitation fold of 20 or more) | *** (*** represented an agitation fold of 20 or more) | 234
2 | COc1cc2cc(C(=O)C[C@H](C)C(=O)O)[se]c2cc1OC [I-4, S-4-(5,6-dimethoxybenzo[b]selenophene-2-yl)-2-methyl-4-oxo-butanoic acid] | *** (*** represented an agitation fold of 20 or more) | *** (*** represented an agitation fold of 20 or more) | 201
3 | COc1ccc2[se]c(C(=O)CC(C)C(=O)O)cc2c1 (stereo not drawn) [I-5] | * (* represented an agitation fold of 1 to 10) | * (* represented an agitation fold of 1 to 10) | 59
4 | COc1ccc2cc(C(=O)CC(C)C(=O)O)[se]c2c1 (stereo not drawn) [I-6, 4-(6-dimethoxybenzo[b]selenophene-2-yl)-2-methyl-4-oxo-butanoic acid] | * (* represented an agitation fold of 1 to 10) | * (* represented an agitation fold of 1 to 10) | 15
5 | COc1cc2[se]c(C(=O)CC(C)C(=O)O)cc2cc1O (stereo not drawn) [I-7, 4-(5-hydroxyl-6-dimethoxybenzo[b]selenophene-2-yl)-2-methyl-4-oxo-butanoic acid] | * (* represented an agitation fold of 1 to 10) | ** (** represented an agitation fold of 10 to 20) | 75
6 | CC(CC(=O)c1cc2cc3c(cc2[se]1)OCO3)C(=O)O (stereo not drawn) [I-8, 2-methyl-4-oxo-4-(selenophene[2′,3′:4,5]benzo[1,2-d][1,3]dioxo-6-yl)butanoic acid] | * (* represented an agitation fold of 1 to 10) | * (* represented an agitation fold of 1 to 10) | 20
7 | CCOc1cc2cc(C(=O)CC(C)C(=O)O)[se]c2cc1OC (stereo not drawn) [I-9, 4-(5-ethoxy-6-dimethoxybenzo[b]selenophene-2-yl)-2-methyl-4-oxo-butanoic acid] | ** (** represented an agitation fold of 10 to 20) | ** (** represented an agitation fold of 10 to 20) | 96
8 | COc1cc2[se]c(C(=O)CC(C)C(=O)O)cc2cc1OC(C)C (stereo not drawn) [I-10, 4-(5-isopropoxy-6-dimethoxybenzo[b]selenophene-2-yl)-2-methyl-4-oxo-butanoic acid] | ** (** represented an agitation fold of 10 to 20) | ** (** represented an agitation fold of 10 to 20) | 91
9 | CCOC(=O)C(C)CC(=O)c1cc2cc(OC)c(OC)cc2[se]1 (stereo not drawn) [I-11, 4-(5,6-dimethoxybenzo[b]selenophene-2-yl)-2-methyl-4-oxo-ethyl butyrate] | ** (** represented an agitation fold of 10 to 20) | * (* represented an agitation fold of 1 to 10) | 9
10 | COc1cc2cc(C(=O)CC(C)C(=O)NO)[se]c2cc1OC (stereo not drawn) [I-12, 4-(5,6-dimethoxybenzo[b]selenophene-2-yl)-N-hydroxyl-2-methyl-4-oxo-butyramide] | * (* represented an agitation fold of 1 to 10) | * (* represented an agitation fold of 1 to 10) | 11
